The source of these data is US20050009809A1, “Acridine derivatives and their use as medicaments” (priority 2003, published 2005).

Series [1] concerns human glioblastoma cell line SF-268. The experiment in a line: XTT proliferation assay, SF-268. Format: cell-based. As to conditions: Homo sapiens, read-out: XTT proliferation assay, EC50, SF-268. The text has this: (§1) The substances according to the invention were investigated for their antiproliferative activity in a proliferation test on established tumor cell lines. The test used determines the cellular dehydrogenase activity and makes possible a determination of the cell vitality and indirectly the cell count. The cell lines used are the human cervical carcinoma cell line KB/HeLa (ATCC CCL17), the ovarian adenocarcinoma cell line SKOV-3 (ATCC HTB77), the human glioblastoma cell line […] (NCI 503138) and the lung carcinoma cell line NCI-H460 (NCI 503473).
(§2) The adherently growing tumor cell lines KB/HeLa, SKOV-3, SF-268 and NCI-H460 were cultured under standard conditions in a fumigation incubator at 37° C., 5% CO2 and 95% atmospheric humidity. On experimental day 1, the cells are detached using trypsin/EDTA and pelleted by centrifugation. Subsequently, the cell pellet is resuspended in the respective culture medium at the corresponding cell count and reacted in a 96-well microtiter plate. The plates are then cultured overnight in the fumigation incubator. The test substances are prepared as 1 mg/ml stock solutions in DMSO and diluted to the appropriate concentrations on experimental day 2 using culture medium. The substances in culture medium are then added to the cells and incubated in the fumigation incubator for 45 h. As a control, cells which are not treated with test substance are used. For the XTT assay, 1 mg/ml of XTT (sodium 3′-[1-(phenylaminocarbonyl)-3,4-tetrazolium]-bis(4-methoxy-6-nitro)benzenesulfonic acid) is dissolved in RPMI-1640 medium without Phenol Red. Additionally, a 0.383 mg/ml PMS (N-methyldibenzopyrazine methylsulfate) solution in phosphate-buffered saline solution (PBS) is prepared. On experimental day 4, 75 μl/well of XTT-PMS mixture is pipetted onto the cell plates which in the meantime have been incubated with the test substances for 45 h. For this, shortly before use, the XTT solution is mixed with the PMS solution in the ratio 50:1 (vol:vol). The cell plates are then incubated in the fumigation incubator for a further 3 h and the optical density (OD490 nm) is determined in a photometer. By means of the OD490 nm determined, the percentage inhibition is calculated relative to the control and plotted semilogarithmically in the form of a concentration-action curve. The EC50 is calculated by means of a regression analysis from the concentration-action curve using the program Graphpad Prism.
A general note: Tetrazolium dyes change colour on reduction, which living cells bring about.

The test system of series [2] is lung carcinoma cell line NCI-H460. The experiment in a line: XTT proliferation assay, NCI-H460. The note with it: Homo sapiens, read-out: XTT proliferation assay, EC50, NCI-H460. The class given is cell-based, human.
Excerpt: as §1, §2

Series [3] concerns bovine tubulin with 30% associated proteins (MAPs). The experiment in a line: Tubulin polymerization assay. The class given is biochemical. The note with it: tubulin with 30% MAPs, average of two independent experiments. As to the method:
The compounds according to the invention were tested for inhibition of the polymerization of bovine tubulin in an in-vitro test. In this test, tubulin purified by cycles of polymerization and depolymerization is employed, which is polymerized by addition of GTP and warming. In Table 2, the inhibition or EC50 values of the inhibition of polymerization of tubulin with 30% associated proteins (MAPs) are indicated.
The assay is carried out based on the method of Bollag et al. Lyophilized bovine tubulin (cytoskeleton, ML113 tubulin 30% MAPs) is dissolved in a concentration of 2 mg/ml (ML113 in 80 mM PIPES, 0.5 mM EGTA, 2 mM MgCl2, pH 6.9, 1 mM GTP) or 5 mg/ml (TL238 in 80 mM PIPES, 1 mM EGTA, 0.5 mM MgCl2, 20% (v:v) glycerol pH 6.9, 1 mM GTP). The test substances are diluted in 10% DMSO (v:v) and 5 μl of the dilutions are transferred to a 96-well microtiter plate (Nunc, half area plate). After addition of 45 μl of the tubulin solution, the polymerization is determined at 340 nm in a Spectramax 190 microtiter plate reader (Molecular Devices) by means of a kinetics program at 30 sec intervals over a period of 20 min. The resulting area under curve values are used for the calculation of the inhibition with respect to the untreated control. The controls are untreated cells (±induction). Induction was carried out using 3 μM of muristerone A. On day 1, the cells are sown (±muristerone A) and incubated at 37° C. for 24 h. On day 2, the test substance is added (control DMSO) and incubation at 37° C. is continued further 45 h, after which a standard XTT assay is carried out.

Series [4] has as its system ovarian adenocarcinoma cell line SKOV-3. The experiment in a line: XTT proliferation assay, SKOV-3. Format: cell-based, human. The note with it: Homo sapiens, read-out: XTT proliferation assay, EC50, SKOV3.
Excerpt: as §1, §2

For series [5], the system named is human cervical carcinoma cell line KB/HeLa. Description: XTT proliferation assay, KB/HeLa. Format: cell-based. As to conditions: Homo sapiens, read-out: XTT proliferation assay, EC50, KB/Hela.
Excerpt: as §1, §2

Series [6] can be described thus: Saturation solubility in water. As to conditions: versus comparison substances of WO0208194.
Description: (§3) The saturation solubility in water is determined as described below. For incipient dissolution of the substances and to improve wetting of the samples, at most 1% of DMSO is added. To check the content, an HPLC-UV method was used.
A short description of series [7]: physchem. The note with it: water, thermodynamic from solid.
Description: as §3
The mark [8] stands for this setting: NCI-H460 cells, 45 h incubation.
Setting [9] is: SK-OV-3, SKOV-3 cells, 45 h incubation.

≈ marks a conversion by molar mass, not a printed value. Read-outs that look alike come from different tables or passages of the source.

For the compound `COc1cccc(N2CCN(C(=O)c3c4ccccc4nc4ccc(O)cc34)CC2)c1` [Compound 37, (2-Hydroxyacridin-9-yl)-[4-(3-methoxyphenyl)piperazin-1-yl]methanone], the EC50 in series [1] (SF-268 cells, 45 h incubation) was found to be 0.076 µg/mL (≈ 0.184 µM); in series [2] (setting [8]), 0.067 µg/mL (≈ 0.162 µM); in series [4] (setting [9]), 0.042 µg/mL (≈ 0.102 µM); in series [5] (KB/HeLa cells, 45 h incubation), 0.064 µg/mL (≈ 0.155 µM). The “Inhibition of tubulin polymerization using 30% MAPs, EC50” value (from here on “Inhibition … using 30% MAPs, EC50”) in series [3] was found to be 2.06 µg/mL.

As for `CS(=O)(=O)Oc1cccc(N2CCN(C(=O)c3c4ccccc4nc4ccccc34)CC2)c1` [Compound 15, 3-[4-(Acridin-9-ylcarbonyl)piperazin-1-yl]phenyl methanesulfonate], the EC50 in series [1] (SF-268 cells, 45 h incubation) worked out at 0.069 µg/mL; in series [2] (setting [8]), 0.079 µg/mL; in series [4] (setting [9]), 0.048 µg/mL; in series [5] (KB/HeLa cells, 45 h incubation), 0.078 µg/mL. Also, the “Inhibition of tubulin polymerization in [% INH at 10 μg/ml] using 30% MAPs” value (“Inhibition … [% INH at 10 μg/ml] using 30% MAPs” below) in series [3] came out at 94.8 % INH. Further, in series [3], the “Inhibition … using 30% MAPs, EC50” value turned out to be 4.82 µg/mL.

Consider `CC(=O)Oc1cccc(N2CCN(C(=O)c3c4ccccc4nc4ccccc34)CC2)c1` [Compound 3, 3-[4-(Acridin-9-ylcarbonyl)piperazin-1-yl]phenyl acetate], for which the EC50 came out at 0.018 µg/mL in series [1] (SF-268 cells, 45 h incubation); 0.019 µg/mL in series [2] (setting [8]); 0.011 µg/mL in series [4] (setting [9]); 0.013 µg/mL in series [5] (KB/HeLa cells, 45 h incubation). Also, the “Inhibition … [% INH at 10 μg/ml] using 30% MAPs” value in series [3] was determined as 87 % INH. In addition, the “Inhibition … using 30% MAPs, EC50” value in series [3] came out at 1.35 µg/mL.

Take `O=C(c1c2ccccc2nc2ccc(O)cc12)N1CCN(c2cccc(O)c2)CC1` [Compound 38, (2-Hydroxyacridin-9-yl)-[4-(3-hydroxyphenyl)piperazin-1-yl]methanone]: the EC50 in series [1] (SF-268 cells, 45 h incubation) is 0.137 µg/mL (≈ 0.343 µM); in series [2] (setting [8]), 0.214 µg/mL (≈ 0.536 µM); in series [4] (setting [9]), 0.095 µg/mL (≈ 0.238 µM); in series [5] (KB/HeLa cells, 45 h incubation), 0.125 µg/mL (≈ 0.313 µM). Also, in series [3], the “Inhibition … using 30% MAPs, EC50” value worked out at 4.57 µg/mL.

On to `O=C(NCCO)Oc1cccc(N2CCN(C(=O)c3c4ccccc4nc4ccccc34)CC2)c1` [Compound 7, 3-[4-(Acridin-9-ylcarbonyl)piperazin-1-yl]phenyl (2-hydroxyethyl)carbamate], for which the EC50 in series [1] (SF-268 cells, 45 h incubation) worked out at 0.031 µg/mL (≈ 0.0659 µM); in series [2] (setting [8]) it was 0.036 µg/mL (≈ 0.0765 µM); in series [4] (setting [9]), 0.019 µg/mL (≈ 0.0404 µM); in series [5] (KB/HeLa cells, 45 h incubation), 0.029 µg/mL (≈ 0.0616 µM). Further, the “Water solubility compared to the comparison substances” value in series [6] is listed as “greatly improved water solubilities”. This compound also had a solubility in series [7] of 108 µg/mL (≈ 230 µM).

In the case of `O=C(c1c2ccccc2nc2ccccc12)N1CCN(c2cccc(OP(=O)([O-])[O-])c2)CC1.[Na+].[Na+]` [Compound 33, Mono-{3-[4-(acridin-9-ylcarbonyl)piperazin-1-yl]phenyl}phosphate disodium salt], the EC50 in series [1] (SF-268, 45 h) came out at 0.057 µg/mL; in series [2] (NCI-H460, 45 h), 0.067 µg/mL; in series [4] (SK-OV-3, 45 h) it was 0.038 µg/mL; in series [5] (HeLa, 45 h) it was 0.013 µg/mL. The same compound yielded a solubility in series [7] of 9090 µg/mL.

Turning to `COC(=O)Oc1cccc(N2CCN(C(=O)c3c4ccccc4nc4ccccc34)CC2)c1` [Compound 5, 3-[4-(Acridin-9-ylcarbonyl)piperazin-1-yl]phenyl methyl carbonate], the EC50 came out at 0.024 µg/mL (≈ 0.0544 µM) in series [1] (SF-268 cells, 45 h incubation); 0.021 µg/mL (≈ 0.0476 µM) in series [2] (setting [8]); 0.015 µg/mL (≈ 0.034 µM) in series [4] (setting [9]); 0.017 µg/mL (≈ 0.0385 µM) in series [5] (KB/HeLa cells, 45 h incubation). For the same compound, in series [3], the “Inhibition … [% INH at 10 μg/ml] using 30% MAPs” value is reported as 94.3 % INH. Also, the “Inhibition … using 30% MAPs, EC50” value in series [3] is 1.08 µg/mL.

On to `O=C(OCCCl)Oc1cccc(N2CCN(C(=O)c3c4ccccc4nc4ccccc34)CC2)c1` [Compound 6, 3-[4-(Acridin-9-ylcarbonyl)piperazin-1-yl]phenyl 2-chloroethyl carbonate], for which the melting point is 162 to 163 °C. Further, the EC50 in series [1] (SF-268 cells, 45 h incubation) turned out to be 0.032 µg/mL (≈ 0.0653 µM). Further, the EC50 in series [2] (setting [8]) came to 0.029 µg/mL (≈ 0.0592 µM). In addition, in series [3], the “Inhibition … [% INH at 10 μg/ml] using 30% MAPs” value is recorded as 70 % INH. The EC50 in series [4] (setting [9]) is 0.019 µg/mL (≈ 0.0388 µM). Further, the EC50 in series [5] (KB/HeLa cells, 45 h incubation) was 0.021 µg/mL (≈ 0.0429 µM).

The compound `CC1(C)OCC(COC(=O)Oc2cccc(N3CCN(C(=O)c4c5ccccc5nc5ccccc45)CC3)c2)O1` (centres unmarked) [Compound 16, 3-[4-(Acridin-9-ylcarbonyl)piperazin-1-yl]phenyl 2,2-dimethyl-[1,3]-dioxolan-4-ylmethyl carbonate] yielded a melting point of 107 to 108 °C. In series [1] (SF-268 cells, 45 h incubation), the EC50 was found to be 0.043 µg/mL (≈ 0.0794 µM). The EC50 in series [2] (setting [8]) was 0.042 µg/mL (≈ 0.0775 µM). For the same compound, the EC50 in series [4] (setting [9]) was found to be 0.026 µg/mL (≈ 0.048 µM). Moreover, the EC50 in series [5] (KB/HeLa cells, 45 h incubation) was determined as 0.033 µg/mL (≈ 0.0609 µM).

Broadly, the solubility is the dissolved amount per volume that the medium holds. A high value points to much dissolved substance. One may read the melting point as the temperature, or range, at which the solid turns liquid.
